Values of other authors, collected in patent US9075045B2, “Cell-based detection of APF through its interaction with CKAP4 for diagnosis of interstitial cystitis” (THE COMMONWEALTH MEDICAL COLLEGE, priority 2008, dated 2015).
Read-outs that look alike come from different tables or passages of the source.

Compound: C[S+](C)[O-] [dimethyl sulfoxide]
- effect on IC symptoms (bladder instillation every week or two for 6 to 8 weeks): improve symptoms temporarily

Compound: Bacillus Calmette-Guerin
- effect on IC symptoms (intravesicular agent): improve symptoms

Compound: Pentosan polysulfate sodium
- improved symptoms in % of patients (given orally (100 mg three times a day)): 30%
